Laboratory results: US20100249223A1, “NEW USE FOR CANNABINOID-CONTAINING PLANT EXTRACTS” (priority 2007, published 2010)
Where two headings read alike, the source gives them in different places.

Assays:
[1] = target: T1, TRPV1 channel (Rattus norvegicus, UniProt O35433); test: Intracellular Ca2+ elevation in HEK-293 cells over-expressing rat TRPV1; format: cell-based; settings: for Emax: HEK293, read-out: Maximal response (% ionomycin)
T1 construct: expressed in transfected cells
Procedure: (§1) The applicants have conducted experiments using cannabinoid-containing plant extracts on rat recombinant TRPV1, TRPM8 channels and TRPA1 (also known as ANKTM1) channels, both were stably expressed in HEK293 cells. […] The TRPM8 channel is the receptor from menthol and icilin. The intracellular Ca^2+ concentration was determined before and after the addition of various concentrations of test compounds.
(§2) For the experiments with the TRPM8 channels menthol and icilin were used to activate the channels. For the experiments with the TRPV1 channels ionomycin was used to activate the channels. The cannabinoid-containing plant extracts were produced from cannabis plants using the subcritical CO2 extraction technique as described in the applicants granted United Kingdom patent GB2391865. The cannabinoids were then purified further using the method disclosed in the applicants granted United Kingdom patent GB2393721 to produce substantially pure cannabinoids. Un-purified plant extracts of THC and CBD were also tested in the experiments with the TRPA1 channels.
(§3) HEK293 (human embryonic kidney) cells were plated on 100 mm diameter Petri dishes and transfected at about 80% confluence with Lipofectamine 2000 (Invitrogen) using a plasmid containing the rat TRPA1, TRPV1 or TRPM8 cDNA, according to the manufacturer's protocol. A stably transfected clone was selected by Geneticin G-418 (Invitrogen) 600 μg/ml. Stable transfection was checked by quantitative real time-PCR (RT-PCR).
(§4) TRPA/TRPV1/TRPM8-HEK-293 cells were plated on 100 mm diameter Petri dishes and after 3 days loaded for 1 hour at room temperature with the cytoplasmic calcium indicator Fluo-4-AM (4 μM, Molecular Probes) dissolved in Tyrode' buffer (NaCl 145 mM; KCl 2.5 mM; CaCl2 1.5 mM; MgCl2 1.2 mM; D-Glucose 10 mM; HEPES 10 mM pH 7.4) containing Pluronic (0.02%, Molecular Probes). The cells were washed twice in Tyrode buffer, resuspended and transferred to the quartz cuvette of the spectrofluorimeter (Perkin-Elmer LS 50B) (λ excitation=488 nm; λ emission=516 nm). Intracellular Ca^2+ concentration was determined before and after the addition of various concentrations of test compounds. EC50 values were determined as the concentration of test substances required to produce half-maximal increases in intracellular Ca^2+ concentration. Curve fitting and parameter estimation was performed with Graph Pad Prism®. The same compounds were tested also on non-transfected HEK 293 cells.

[2] = target: T2, TRPA1 channel (Rattus norvegicus, UniProt Q6RI86); test: Intracellular Ca2+ elevation in HEK-293 cells over-expressing rat TRPA1; format: cell-based
T2 construct: expressed in transfected cells
Procedure: as §1, §2, §3, §4

[3] = HEK293, TRPA1-HEK-293 cells, relative to mustard oil 100 μM, read-out: Maximal response (% of mustard oil 100 μM)
[4] = TRPA1-HEK-293 cells, Fluo-4, read-out: -logEC50% (M) for the elevation of [Ca2+]i (converted)
[5] = TRPA1, summary of Table 1, read-out: EC50 values (range given)

T1 sequence (O35433 whole entry): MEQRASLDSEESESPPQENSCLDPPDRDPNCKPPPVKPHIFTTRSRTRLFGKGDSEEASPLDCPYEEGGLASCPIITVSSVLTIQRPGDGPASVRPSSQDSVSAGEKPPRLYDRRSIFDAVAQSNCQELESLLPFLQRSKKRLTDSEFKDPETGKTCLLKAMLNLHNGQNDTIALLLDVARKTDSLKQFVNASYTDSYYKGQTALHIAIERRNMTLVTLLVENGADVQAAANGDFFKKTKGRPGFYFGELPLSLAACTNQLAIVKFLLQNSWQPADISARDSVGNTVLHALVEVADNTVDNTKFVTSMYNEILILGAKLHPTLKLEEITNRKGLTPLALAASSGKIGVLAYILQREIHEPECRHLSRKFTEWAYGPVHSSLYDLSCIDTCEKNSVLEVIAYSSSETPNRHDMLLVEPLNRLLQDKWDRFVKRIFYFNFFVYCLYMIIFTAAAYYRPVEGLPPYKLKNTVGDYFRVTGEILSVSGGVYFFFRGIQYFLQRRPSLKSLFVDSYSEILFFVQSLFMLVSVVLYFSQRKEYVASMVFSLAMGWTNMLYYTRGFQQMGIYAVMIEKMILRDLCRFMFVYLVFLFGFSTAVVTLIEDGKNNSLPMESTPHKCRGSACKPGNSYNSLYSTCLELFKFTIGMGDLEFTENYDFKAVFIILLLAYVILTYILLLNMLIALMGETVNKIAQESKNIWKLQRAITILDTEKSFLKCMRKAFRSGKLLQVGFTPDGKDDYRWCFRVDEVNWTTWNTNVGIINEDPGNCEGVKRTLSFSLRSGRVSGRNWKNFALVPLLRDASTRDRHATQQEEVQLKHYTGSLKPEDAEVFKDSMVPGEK
T2 sequence (Q6RI86 whole entry): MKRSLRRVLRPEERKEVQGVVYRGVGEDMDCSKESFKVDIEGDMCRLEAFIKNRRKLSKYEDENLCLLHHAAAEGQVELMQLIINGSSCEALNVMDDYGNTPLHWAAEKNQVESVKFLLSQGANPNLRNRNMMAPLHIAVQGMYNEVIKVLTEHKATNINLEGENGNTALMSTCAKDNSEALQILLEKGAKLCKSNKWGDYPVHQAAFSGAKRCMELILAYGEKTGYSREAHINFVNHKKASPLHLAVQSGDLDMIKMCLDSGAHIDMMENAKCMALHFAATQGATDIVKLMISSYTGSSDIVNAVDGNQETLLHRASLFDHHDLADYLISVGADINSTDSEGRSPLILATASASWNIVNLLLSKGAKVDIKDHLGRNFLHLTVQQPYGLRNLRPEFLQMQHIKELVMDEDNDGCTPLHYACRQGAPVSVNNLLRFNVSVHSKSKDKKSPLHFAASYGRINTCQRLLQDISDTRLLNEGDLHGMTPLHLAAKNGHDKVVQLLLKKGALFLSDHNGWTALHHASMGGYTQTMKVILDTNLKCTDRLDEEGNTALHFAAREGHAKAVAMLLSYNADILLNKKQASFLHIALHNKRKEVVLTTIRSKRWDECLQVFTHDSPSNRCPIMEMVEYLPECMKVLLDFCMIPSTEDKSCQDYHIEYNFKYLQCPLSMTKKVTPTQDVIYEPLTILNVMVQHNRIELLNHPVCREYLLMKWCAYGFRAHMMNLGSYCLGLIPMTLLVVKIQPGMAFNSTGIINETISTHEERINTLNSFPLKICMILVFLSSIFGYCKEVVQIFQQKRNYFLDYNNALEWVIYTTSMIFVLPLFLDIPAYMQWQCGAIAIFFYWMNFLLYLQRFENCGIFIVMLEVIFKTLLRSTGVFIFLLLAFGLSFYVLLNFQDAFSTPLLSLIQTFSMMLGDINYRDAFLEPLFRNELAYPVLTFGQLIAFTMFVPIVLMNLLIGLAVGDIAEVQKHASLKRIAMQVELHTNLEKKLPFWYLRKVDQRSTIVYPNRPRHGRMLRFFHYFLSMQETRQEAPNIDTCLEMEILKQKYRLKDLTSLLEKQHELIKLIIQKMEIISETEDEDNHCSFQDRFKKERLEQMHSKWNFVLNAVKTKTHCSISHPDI

Structure (SMILES) | EC50 [1] [µM] | Emax [1] [%] | Emax [2, 3] [%] | EC50 [2, 4] [M] | also measured
CCCCCc1cc(O)c(C/C=C(\C)CCC=C(C)C)c(O)c1 [CBG, cannabigerol] | 1 | 54.4 ± 5.4 | – | – | –
O=CC=Cc1ccccc1 [Cinnamaldehyde, cinnamaldehyde, reference compound] | – | – | 99.1 ± 9 | 1.29e-05 | –
COc1cc(CNC(=O)CCCC/C=C/C(C)C)ccc1O [Capsaicin, reference compound] | – | 68.6 ± 1.2 | – | – | –
CCCCCc1cc(O)c2c(c1)OC(C)(C)[C@@H]1CCC(C)=C[C@@H]21 [THC, tetrahydrocannabinol] | – | – | 117 ± 12 | 1.86e-07 | –
C=C(C)[C@@H]1CCC(C)=C[C@H]1c1c(O)cc(CCCCC)cc1O [CBD, cannabidiol] | 0.7 | 50 ± 1 | 86.9 ± 8 | 8.51e-08 | EC50 [2, 5]: 6e-08 to 1e-07 M
CCCCCc1cc(O)c2c(c1)OC(C)(CCC=C(C)C)C=C2 (centres unmarked) [CBC, cannabichromene] | 24.2 | 9 ± 4.9 | 118 ± 10 | 3.31e-08 | EC50 [2, 5]: 6e-08 to 1e-07 M
CCCCCc1cc2c(c(O)c1C(=O)O)[C@@H]1C=C(C)CC[C@H]1C(C)(C)O2 [THCA, tetrahydrocannabinolic acid] | – | – | – | – | Maximal response (% of mustard oil 100 μM) ([2]; TRPA1-HEK-293 cells, relative to mustard oil 100 μM): 70.1 ± 8%
C=C(C)[C@@H]1CCC(C)=C[C@H]1c1c(O)cc(CCCCC)c(C(=O)O)c1O [CBDA, cannabidiolic acid] | – | – | 48.2 ± 6 | 8.13e-07 | –
C=C(C)[C@@H]1CCC(C)=C[C@H]1c1c(O)cc(CCC)cc1O [CBDV, cannabidivarin] | 1.4 | 19.8 ± 1.9 | – | – | –
C=CCN=C=S [Mustard oil (allyl isothiocyanate), allyl isothiocyanate, reference compound] | – | – | – | – | Emax at 100 µM [2, 3]: 100 ± 11%
